According to US20130123254A1, “PHARMACEUTICALLY ACCEPTABLE MGLUR5 POSITIVE ALLOSTERIC MODULATORS AND THEIR METHODS OF IDENTIFICATION” (priority 2011, published 2013):

How the values were obtained:
human mGlu5a receptor [1] = target: T1, human mGlu5a receptor (Homo sapiens, UniProt P41594); test: Intracellular Ca2+ mobilization assay, PAM EC50 and efficacy at EC20 of L-glutamate; type: cell-based; conditions: maximal response relative to saturating L-glutamate, FIGS. 4 and 5
T1 construct: expressed in transfected cells
T1 sequence (P41594 21-1180 isoform P41594-2 limits assumed): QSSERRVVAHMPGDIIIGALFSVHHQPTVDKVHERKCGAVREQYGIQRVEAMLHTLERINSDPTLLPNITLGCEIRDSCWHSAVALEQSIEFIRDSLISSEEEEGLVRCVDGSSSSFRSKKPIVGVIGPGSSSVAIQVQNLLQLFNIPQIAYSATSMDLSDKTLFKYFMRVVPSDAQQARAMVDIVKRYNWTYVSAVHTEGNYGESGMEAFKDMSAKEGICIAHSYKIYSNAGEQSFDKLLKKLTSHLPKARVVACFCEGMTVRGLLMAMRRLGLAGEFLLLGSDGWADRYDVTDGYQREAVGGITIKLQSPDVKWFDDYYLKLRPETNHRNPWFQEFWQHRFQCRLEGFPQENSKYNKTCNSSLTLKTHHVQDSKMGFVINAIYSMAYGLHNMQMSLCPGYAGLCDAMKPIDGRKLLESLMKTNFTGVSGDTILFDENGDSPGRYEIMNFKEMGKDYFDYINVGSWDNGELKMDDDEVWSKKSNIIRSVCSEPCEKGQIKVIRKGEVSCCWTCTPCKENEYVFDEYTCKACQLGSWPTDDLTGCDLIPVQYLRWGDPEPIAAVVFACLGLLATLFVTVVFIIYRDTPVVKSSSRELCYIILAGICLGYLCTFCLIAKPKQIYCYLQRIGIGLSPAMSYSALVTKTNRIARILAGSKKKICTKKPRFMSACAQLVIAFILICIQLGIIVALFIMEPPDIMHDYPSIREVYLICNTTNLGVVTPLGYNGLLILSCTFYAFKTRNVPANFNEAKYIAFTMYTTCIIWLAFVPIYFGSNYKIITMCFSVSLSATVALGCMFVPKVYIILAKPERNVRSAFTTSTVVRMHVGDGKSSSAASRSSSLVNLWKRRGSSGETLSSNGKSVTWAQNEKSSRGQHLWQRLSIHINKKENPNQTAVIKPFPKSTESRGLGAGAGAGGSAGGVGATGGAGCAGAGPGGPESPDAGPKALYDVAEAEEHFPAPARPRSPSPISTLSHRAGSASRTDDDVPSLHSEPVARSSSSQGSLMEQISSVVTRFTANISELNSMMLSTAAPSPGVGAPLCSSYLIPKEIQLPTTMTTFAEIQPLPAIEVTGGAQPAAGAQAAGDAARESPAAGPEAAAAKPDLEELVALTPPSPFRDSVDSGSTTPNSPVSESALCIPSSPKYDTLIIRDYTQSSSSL

human mGlu5a receptor [2] = target: T1, human mGlu5a receptor; test: Shift factor in Ca2+ mobilization assay (human); type: cell-based; conditions: shift factor = EC50(glutamate)/EC50(glutamate + test compound)
Description: A monoclonal HEK-293 cell line stably transfected with a cDNA encoding for the human mGlu5a receptor was generated; for the work with mGlu5 Positive Allosteric Modulators (PAMs), a cell line with low receptor expression levels and low constitutive receptor activity was selected to allow the differentiation of agonistic versus PAM activity. Cells were cultured according to standard protocols (Freshney, 2000) in Dulbecco's Modified Eagle Medium with high glucose supplemented with 1 mM glutamine, 10% (vol/vol) heat-inactivated bovine calf serum, Penicillin/Streptomycin, 50 μg/ml hygromycin and 15 μg/ml blasticidin (all cell culture reagents and antibiotics from Invitrogen, Basel, Switzerland).
About 24 hrs before an experiment, 5×10^4 cells/well were seeded in poly-D-lysine coated, black/clear-bottomed 96-well plates. The cells were loaded with 2.5 μM Fluo-4AM in loading buffer (1×HBSS, 20 mM HEPES) for 1 hr at 37° C. and washed five times with loading buffer. The cells were transferred into a Functional Drug Screening System 7000 (Hamamatsu, Paris, France), and 11 half logarithmic serial dilutions of test compound at 37° C. were added and the cells were incubated for 10-30 min. with on-line recording of fluorescence. Following this pre-incubation step, the agonist L-glutamate was added to the cells at a concentration corresponding to EC20 (typically around 80 μM) with on-line recording of fluorescence; in order to account for day-to-day variations in the responsiveness of cells, the EC20 of glutamate was determined immediately ahead of each experiment by recording of a full dose-response curve of glutamate.
(§1) The shift factor is calculated for a specific concentration of the test compound according to the equation: Shift factor=EC50(glutamate)/EC50(glutamate+×uM test compound).
(§2) On the same 96-well plate a serial dilution of glutamate is added to a) cells previously incubated for 10-30 min. with a fixed concentration of an mGlu5 PAM test compound and b) cells not incubated with mGlu5 PAM test compound. The peak fluorescence signals obtained from cells with or without pre-incubation with mGlu5 PAM test compound is plotted as illustrated, and the two EC50 values are derived from the plot. The shift factor is specific for the concentration of the test compound used and calculated as follows: Shift factor=ECM50(glutamate)/EC50(glutamate+×μM test compound).

mGlu5 receptor = target: T2, mGlu5 receptor (Rattus norvegicus, UniProt P31424); test: Shift factor in Ca2+ mobilization assay (rat); type: cell-based
T2 construct: expressed in transfected cells
T2 sequence (P31424 21-1203): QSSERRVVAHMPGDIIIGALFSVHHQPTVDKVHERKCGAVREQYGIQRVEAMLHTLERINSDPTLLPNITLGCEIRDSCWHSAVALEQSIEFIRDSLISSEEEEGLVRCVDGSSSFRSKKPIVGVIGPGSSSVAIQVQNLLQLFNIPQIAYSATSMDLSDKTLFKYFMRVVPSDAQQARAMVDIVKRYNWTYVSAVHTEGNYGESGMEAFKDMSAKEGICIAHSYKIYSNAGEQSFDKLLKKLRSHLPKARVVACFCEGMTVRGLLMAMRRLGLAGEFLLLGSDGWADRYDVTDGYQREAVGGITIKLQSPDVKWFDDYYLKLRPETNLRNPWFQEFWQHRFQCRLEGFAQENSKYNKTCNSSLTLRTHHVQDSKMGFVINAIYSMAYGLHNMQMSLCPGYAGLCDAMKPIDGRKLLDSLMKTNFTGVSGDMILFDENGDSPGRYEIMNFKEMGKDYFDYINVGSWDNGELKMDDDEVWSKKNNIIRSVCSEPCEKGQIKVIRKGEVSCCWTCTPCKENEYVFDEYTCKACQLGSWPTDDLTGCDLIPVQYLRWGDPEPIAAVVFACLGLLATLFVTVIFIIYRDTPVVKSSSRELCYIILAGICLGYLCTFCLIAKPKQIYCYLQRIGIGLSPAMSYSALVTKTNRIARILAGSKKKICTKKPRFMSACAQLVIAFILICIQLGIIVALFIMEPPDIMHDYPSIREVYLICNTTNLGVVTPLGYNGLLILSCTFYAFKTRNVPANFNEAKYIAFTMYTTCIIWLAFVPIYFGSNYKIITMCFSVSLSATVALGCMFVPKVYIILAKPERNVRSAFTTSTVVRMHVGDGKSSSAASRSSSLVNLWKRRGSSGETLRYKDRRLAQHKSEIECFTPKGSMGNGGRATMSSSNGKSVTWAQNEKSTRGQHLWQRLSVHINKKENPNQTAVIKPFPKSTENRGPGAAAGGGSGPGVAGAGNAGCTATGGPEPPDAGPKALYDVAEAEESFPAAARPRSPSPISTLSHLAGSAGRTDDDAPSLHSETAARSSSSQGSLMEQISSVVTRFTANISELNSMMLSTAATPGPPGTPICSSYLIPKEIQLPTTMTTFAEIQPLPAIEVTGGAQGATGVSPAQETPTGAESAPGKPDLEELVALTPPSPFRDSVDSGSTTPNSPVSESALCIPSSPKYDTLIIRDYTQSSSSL
Description: as §1, §2

Body temperature test = type: in vivo; conditions: rat, body temperature at 2 h, read-out: BT test MED (rat)
Description: Principle: Evaluation of the effect of a compound on core body temperature at a 2-h interval in the rat.
The temperature decrease in rats upon administration of mGluR5 negative allosteric modulators (antagonists) is well documented Warty & al.; Psychopharmacology (2005) 179: 207-217 (DOI 10.1007/s00213-005-2143-4)).
Male Sprague Dawley Rats (OFA-SD, Charles River, ˜250 g) are weighed and isolated for at least 30 min before compound injection in type II Makrolon cages. Before injection of the mGlu5 PAM compound, rectal body temperature is measured with a thermometer with a special rat probe for ˜20 s. The probe is dipped in glycerin before each use. Immediately after compound administration, rats are placed back in the type 2 cage. After 2 hours, the body temperature of each rat is measured again. The difference in absolute body temperature as well as the temperature difference delta T2-T0 between vehicle and compound injected rats is analysed.

[3] = HTD/LTD dose, tolerability in rat; conditions: for HTD/LTD Dose (rat) (observation): observation at the HTD/LTD dose

| SMILES | efficacy (human mGlu5a receptor [1]) | Shift (hum, 10 uM) (human mGlu5a receptor [2]) | Shift (rat, 10 uM) (mGlu5 receptor) | minimal effective dose (Body temperature test) [mg/kg] | HTD/LTD Dose (rat) [3] [mg/kg] | HTD/LTD Dose (rat) (observation) [3] |
| --- | --- | --- | --- | --- | --- | --- |
| CC1(C)CC(=O)N(c2ccc(C#Cc3cccc(F)c3)cn2)N1 [Example 1] | low efficacy | 1.75 | 1.44 | 0.3 | 100 | well tolerated |
| CN1C(=O)N(c2ccc(C#Cc3ccccc3)cn2)[C@@H]2CCC[C@@H]21 [Example 2] |  | 1.02 | 0.88 | 0.1 | 100 | well tolerated |
| CN1C(=O)N(c2ccc(C#Cc3cccc(F)c3)cn2)[C@@H]2CCC[C@@H]21 [Example 3] |  | 0.87 | 0.82 | 0.1 | 100 | well tolerated |
| CN1C(=O)N(c2ccc(C#Cc3ccccc3)nn2)[C@@H]2CCC[C@@H]21 [Example 4] |  | 2.46 | 1.70 | 0.1 | 100 | well tolerated |
| CN1C(C)(C)CN(c2ccc(C#Cc3ccccc3)cn2)S1(=O)=O [Example 5] |  | 2.02 | 1.66 | 0.3 | 100 | well tolerated |
| CC1(C)CN(c2ccc(C#Cc3cccc(F)c3)cn2)C(=O)O1 [Example 6] |  | 1.40 | 1.90 | 0.3 | 100 | well tolerated |
| CN1C(=O)N(c2ncc(C#Cc3ccc(F)cc3)cn2)CC1(C)C [Example 7] |  | 2.44 | 1.80 | 0.3 | 100 | well tolerated |
| CN1C(=O)N(c2ccc(C#Cc3cncc(Cl)c3)cn2)CC1(C)C [Example 8] |  | 3.60 | 2.28 | 1 | 100 | well tolerated |
| CC1(C)CN(c2ccc(C#Cc3ccccc3)cn2)C(=O)O1 [Example 9] |  | 1.70 | 2.63 | 1 | 30 | well tolerated |
| CO[C@@H]1C(=O)N(c2ncc(C#Cc3cccc(F)c3)cn2)CC1(C)C [Example 10] |  | 3.46 | 2.62 | 0.3 | 100 | well tolerated |
| CN(C(=O)c1ncc(C#Cc2cccc(F)c2)cn1)C(C)(C)C [Example 11] |  | 2.06 | 1.86 | 0.1 | 100 | well tolerated |
| CN(C(=O)c1ccc(C#Cc2cc(F)ccc2F)cn1)C(C)(C)C [Example 12] |  | 1.86 | 1.62 | 0.1 | 100 | well tolerated |
| CC1(C)CCN(c2ccc(C#Cc3cccc(Cl)c3)cn2)C(=O)C1 [Example 13] |  | 4.74 | 3.92 | 0.1 | 100 | seizures |
| CN1C(=O)N(c2ccc(C#Cc3ccccc3)cn2)CC1(C)C [Example 14] |  |  |  | 0.3 | 3 |  |
| CC1(C)CCN(c2ccc(C#Cc3ccccc3)cn2)C(=O)O1 [Example 15] | high efficacy | 9.73 | 7.67 | 0.1 | 3 | seizures |
| C(#Cc1cnc2nc(N3CCOCC3)nn2c1)c1ccccc1 [Example 16] |  | 12.13 | 11.31 | 3 | 10 | seizures |
| CC1(C)CCN(c2ccc(C#Cc3ccccc3)cn2)C(=O)C1 [Example 17] |  | 15.95 | 12.93 | 0.1 | 100 | seizures |
